The values that follow come from article PMC9138505, “Small Molecule 20S Proteasome Enhancer Regulates MYC Protein Stability and Exhibits Antitumor Activity in Multiple Myeloma” (Biomedicines, 2022).

For one series, the system named is MYC. The series can be described thus: MYC degradation in MM cells, Western blot. The class given is cell-based, human. The conditions noted are these: RPMI-8226 cells. Here is the method: Western blot: RPMI-8226 cells were grown to approximately 80% confluency in a T-75 flask. Cells were treated with either vehicle (DMSO) or TCH-165 at the indicated concentrations, for 4 h. In experiments involving bortezomib, cells were pre-treated with bortezomib (5 μM) for 1 h before adding TCH-165 or vehicle for a further 4 h. Cells were pelleted and washed with chilled PBS buffer (2X) and resuspended in chilled RIPA buffer supplemented with protease inhibitor cocktail (Sigma Aldrich; Burlington, MA, USA). Total protein was quantified by bicinchoninic acid assay (BCA assay, Thermofisher Scientific; Waltham, MA, USA), normalized to 2 mg/mL and boiled with 5X SDS loading buffer. Lysates (30 μg) were resolved on a 4–20% Tris/glycine gel and transferred to a PVDF membrane. The membrane was probed with anti MYC (Cell Signaling; cat#5605; Danvers, MA, USA) and anti-GAPDH-HRP (Santa Cruz; sc-47724 HRP; Dallas TX, USA) antibodies.

The next series concerns c-MYC. The series can be described thus: c-MYC degradation ELISA in H929 cells. The class given is cell-based, human. The conditions noted are these: various concentrations, 4 h. The method, then: ELISA: c-MYC degradation in L363 and H929 cells. L363 cells were grown in T-25 flasks in RPMI-1640 medium supplemented with 15% heat-inactivated fetal bovine serum (FBS) and 1% penicillin/streptomycin at 37 °C and 5% CO2. H929 cells were grown in T-25 flasks in RPMI-1640 medium supplemented with 10% FBS, 0.05 mM 2-mercaptoethanol, and 1% penicillin/streptomycin. Cells were treated with DMSO, TCH-165, or bortezomib (BTZ) at the indicated concentrations for 4 h (0.1% final DMSO concentration). Following the 4-hour treatment, cells were pelleted, washed with chilled PBS buffer, and resuspended in chilled lysis buffer (10 mM Tris, 100 mM NaCl, 1 mM EDTA, 1 mM EGTA, 1 mM NaF, 20 mM Na4P2O7, 2 mM Na3VO4, 1% Triton X-100, 10% glycerol, 0.1% SDS, and 0.5% deoxycholate; pH 7.4) supplemented with Complete Mini Protease Inhibitor Cocktail (Sigma Aldrich). The lysate was clarified by centrifugation at 5000 rpm (4 °C) for 15 min. Total protein of the lysate was quantified by bicinchoninic acid assay (BCA assay, Thermofisher Scientific; Waltham, MA, USA). and normalized to 1.5 mg/mL total protein. The supplied protocol for the human c-MYC (Total) ELISA Kit (Invitrogen; Waltham, MA, USA) was used to determine the total c-MYC concentration of the lysates. Prior to loading lysate into ELISA plate wells, lysate (5 µL) was diluted into 45 µL of supplied standard diluent buffer.

The subject of another series is RPMI-8226 cells. In words: Cell viability, CellTiter-Glo, 72 h. It is filed as cell-based, human. The conditions noted are these: RPMI-8226, 72 h. The method, then: RPMI-8226, L363 and NCI-H929 cells were obtained from ATCC (Manassas, VA, USA) and were maintained in RPMI medium supplemented with 10% fetal bovine serum, and 100 U/mL penicillin/streptomycin, at 37 °C with 5% CO2. DMSO was used as the compound vehicle or vehicle control at a 0.1% final concentration for both cell culture and enzyme assay.
Error bars represent SD for triplicate wells.
(In general: In ATP-based viability assays light output follows the ATP content of the culture.)

A short description of series [1]: Pharmacokinetic assessment in dogs. The class given is in vivo. The conditions noted are these: male, beagle, dog. The method, then: Adult beagle dogs (male, 12 months of age, n = 3), weighing approximately 10 kg, received a […] of the test compound at 500 mg bid delivered in capsule form. Blood (approximately 2.5 mL) was collected into lithium heparin tubes at 0, 1 h, 2 h, 4 h, 8 h, and 24 h post-day 1 and post-day 5 dose for PK assessment using mass spectrometry. Blood (approximately 2 mL) was also collected and divided into EDTA and standard clot tubes on day 6 post-dose for determination of CBC and clinical chemistry parameters, respectively, and analyzed at the Michigan State University Veterinary Diagnostic Laboratory. Clinical observations were conducted daily on non-dosing days and twice on dosing days.

For series [2], the system named is proteasome, CT-L substrate Suc-LLVY-AMC, canine PBMC lysate. The series can be described thus: Proteasome activity in canine PBMC lysate (target engagement). It is filed as in vivo. The conditions noted are these: treated canines, 1920 mg BID.
Experimental: Canine blood samples obtained in BD Vacutainer CPT mononuclear cell preparation tubes containing sodium citrate were used to isolate PBMCs. For PBMC isolation, sample tubes were inverted five times and equilibrated for the centrifuge with sterile PBS buffer. Tubes were centrifuged at 1800× g with the acceleration set at 5 and a break set to 0 at room temperature for 30 min. Half of the plasma layer was discarded. Using a sterile Pasteur pipette, the buffy coat was collected and put into a 15 mL conical tube and sterile PBS buffer was added to 10 mL. The conical tubes were centrifuged at 300× g for 10 min and the supernatant was removed. Cells were resuspended in 150 µL of lysis buffer (50 mM Tris-HCl, 2 mM Na2ATP, 5 mM MgCl2, 0.5 mM EDTA, 10% glycerol) and lysed by vortex. Samples were centrifuged for 20 min at 14,000× g. The total protein concentration of the supernatant was determined using bicinchoninic acid assay (BCA assay), and the samples were normalized to 1 mg/mL. Samples were diluted to 0.036 µg/µL in assay buffer (38 mM Tris, 100 mM NaCl, pH 7.8) and 140 µL of the diluted sample was added to three wells of a black, clear-bottom 96-well plate. Substrate stock solution (10 µL of 375 µM Suc-LLVY-AMC in assay buffer) was added to each well. Fluorescence was measured and kinetic readings were taken every 5 min at 37 °C, at 380/440 nm for 1 h.
A further series deals with 26S proteasome. Further details: method as in PMID 29897236. The conditions noted are these: cited from earlier work.
In series [3] the test system is primary human MM cells of newly diagnosed patient. In words: Primary cell viability, CellTiter-Glo, 72 h.
Text: White blood cells (WBCs) were separated from red blood cells by the Ficoll density gradient. Multiple myeloma cells were then isolated from WBCs using human CD138 affinity magnetic beads (Miltenyi Biotec; cat#130-093-062; Gaithersburg, MD, USA) following the manufacturer’s protocol. Cells were cryopreserved in 10% DMSO in FBS. Revived cells were maintained in an RPMI medium with 10% FBS for 10 days prior to treatment. […] Cells were equilibrated to RT and CellTiter-Glo (Promega; Madison, WI, USA) solution (100 μL) was added and incubated with shaking for 10 min at RT. The assay plate was then allowed to equilibrate for 5 min at RT and luminescent readings were taken on a SpectraMax® M5. Data are presented as a percentage of the vehicle control for each experimental condition, after background subtraction. Error bars represent SD for triplicate wells.
The mark [4] stands for this setting: blood, dogs, 50 mg/kg bid oral capsule.

Values joined by “and” are separate entries in the source; they are usually repeats but may differ in a detail not shown here. Identical values can stand only once.

The term CC50 denotes the concentration giving 50% cytotoxicity. A lower CC50 goes with greater toxicity to the cells. Broadly, the Cmax is the maximum level reached in the sampled fluid or tissue. One may read the Tmax as the time from dosing to the highest level. Broadly, the AUC is concentration integrated over time.

As to `CCOC(=O)[C@]1(c2ccccc2)N=C(c2ccc(OC)cc2)N(Cc2ccccc2)[C@@H]1c1ccc(NCc2ccccc2)cc1` [TCH-165], the “efficacy of TCH-165 on MYC protein levels with proteasome blocked” value in the series with MYC (TCH-165 5 μM with BTZ 5 μM) is listed as “nearly completely abrogated”. In the series with MYC (TCH-165 5 μM, 4 h), the “MYC protein levels compared to vehicle control” value is given as “reduced MYC protein levels”. For the same compound, the “MYC clearance (percent MYC remaining)” value with c-MYC was “induced clearance of MYC”. In addition, the CC50 in the series with RPMI-8226 cells (Homo sapiens) is roughly 1 µM; with RPMI-8226 cells, 0.9 µM; in series [3], 1 µM. Moreover, the Cmax in series [1] (setting [4]) came to 1600 nM; in series [1] (plasma, dogs (n=3), means, 50 mg/kg bid oral) it was 1570 nM. In addition, the Tmax in series [1] (setting [4]) was 24 h. Further, in series [1] (plasma, dogs (n=3), means, 50 mg/kg bid oral, read-out: AUC (nM) (0-24 for dogs)), the AUC amounted to 19.8 µM·h. Further, the “drug concentration by mass spectrometry” value in series [2] was 1400 nM and 1100 nM. In addition, the 26S proteasome activity result with 26S proteasome is recorded as “not affected”. Moreover, the “concentrations at which structured proteins targeted by the 26S-ubiquitin-dependent proteasome system were not affected” value in the series on 26S proteasome was less than 30 µM. The “concentration at which disassembly of the 26S proteasome inhibited 26S-mediated degradation of ubiquitinylated substrates” value in the series with 26S proteasome (various cell lines, including RPMI-8226) was greater than 30 µM.
